# Biological target: T1, wildtype HIV-1 protease (Human immunodeficiency virus type 1 group M subtype B, UniProt P04585)
# T1 construct: preincubated with the HIV-1 protease (wild type) enzyme in assay buffer; made in house; host or cells: Escherichia coli
# Assay: Assay for Inhibition of Microbial Expressed HIV Protease (Pepcleav)
# Type: biochemical
# Experimental: Assay for Inhibition of Microbial Expressed HIV Protease (“Pepcleav”)
# Studies of the inhibition of the wildtype HIV-1 protease (which was expressed in Escherichia coli) were carried out with a peptide substrate [Val-Ser-Gln-Asn-(βnaphthyl)Ala-Pro-Ile-Val (SEQ ID NO: 1)]. The inhibitor was first preincubated with the HIV-1 protease (wild type) enzyme in assay buffer (50 mM sodium acetate, pH 5.5, 100 mM NaCl, and 0.1% BSA) for 30 minutes at room temperature. Substrate was added to 400 micromolar in a total volume of 20 microliters containing 20 picomolar HIV-1 protease (final) and the reaction was incubated for 1 hour at 30° C. The reaction was quenched with the addition of formic acid and indinavir to 0.012% and 150 nM final concentrations, respectively. The product formation was determined after separation of product and substrate on a Zorbax Eclipse XDB-C18 column connected to an API 4000 mass spectrometer (Applied Biosystems) with multiple reaction monitoring (transitions were 644.5/428.9 and 615.4/422.2 (M1/M3) for product and indinavir respectively). The extent of inhibition of the reaction was determined from the peak area of the products. Analysis of the products, independently synthesized, provided quantitation standards and confirmation of the product composition.
row,SMILES,IC50 [nM]
1,"COC(=O)N[C@H](C(=O)Nc1ccccc1CC[C@@H]1CN[C@H](c2cc3cc(C)ccc3[nH]2)CO1)C(c1ccccc1)c1ccccc1 [Example 54, Nα-(methoxycarbonyl)-N-(2-{2-[(2R,5R)-5-(5-methyl-1H-indol-2-yl)morpholin-2-yl]ethyl}phenyl)-β-phenyl-L-phenylalaninamide]",143
2,COC(=O)N[C@H](C(=O)Nc1ccccc1CC[C@@H]1CN[C@H](c2cc3cc(C(F)(F)F)ccc3[nH]2)CO1)C(c1ccccc1)c1ccccc1 [Example 55],152
3,"COC(=O)N[C@H](C(=O)Nc1ccccc1CC[C@@H]1CN[C@H](c2cc3cc(OC)ccc3[nH]2)CO1)C(c1ccccc1)c1ccccc1 [Example 56, Nα-(methoxycarbonyl)-N-(2-{2-[(2R,5R)-5-(5-methoxy-1H-indol-2-yl)morpholin-2-yl]ethyl}phenyl)-β-phenyl-L-phenylalaninamide]",98.3
4,"COC(=O)N[C@H](C(=O)Nc1ccccc1CC[C@@H]1CN[C@H](c2cc3cc(Cl)ccc3[nH]2)CO1)C(c1ccccc1)c1ccccc1 [Example 57, N-(2-{2-[(2R,5R)-5-(5-chloro-1H-indol-2-yl)morpholin-2-yl]ethyl}phenyl)-Nα-(methoxycarbonyl)-β-phenyl-L-phenylalaninamide]",70.2
5,"COC(=O)N[C@H](C(=O)Nc1ccccc1CC[C@@H]1CN[C@H](c2cc3ccc(Cl)cc3[nH]2)CO1)C(c1ccccc1)c1ccccc1 [Example 58, N-(2-{2-[(2R,5R)-5-(6-chloro-1H-indol-2-yl)morpholin-2-yl]ethyl}phenyl)-Nα-(methoxycarbonyl)-β-phenyl-L-phenylalaninamide]",76.2
6,"COC(=O)N[C@H](C(=O)Nc1ccccc1CC[C@@H]1CN[C@H](c2cc3cccc(Cl)c3[nH]2)CO1)C(c1ccccc1)c1ccccc1 [Example 59, N-(2-{2-[(2R,5R)-5-(7-chloro-1H-indol-2-yl)morpholin-2-yl]ethyl}phenyl)-Nα-(methoxycarbonyl)-β-phenyl-L-phenylalaninamide]",96.4
7,"COC(=O)N[C@H](C(=O)Nc1ccccc1CC[C@@H]1CN[C@H](c2cc3c(Cl)cccc3[nH]2)CO1)C(c1ccccc1)c1ccccc1 [Example 60, N-(2-{2-[(2R,5R)-5-(4-chloro-1H-indol-2-yl)morpholin-2-yl]ethyl}phenyl)-Nα-(methoxycarbonyl)-β-phenyl-L-phenylalaninamide]",88.6
8,"COC(=O)N[C@H](C(=O)Nc1ccccc1CC[C@@H]1CN[C@H](c2cc3cnccc3[nH]2)CO1)C(c1ccccc1)c1ccccc1 [Example 61, Nα-(methoxycarbonyl)-β-phenyl-N-(2-{2-[(2R,5R)-5-(1H-pyrrolo[3,2-c]pyridin-2-yl)morpholin-2-yl]ethyl}phenyl)-L-phenylalaninamide]",550
9,"COC(=O)N[C@H](C(=O)Nc1ccccc1CC[C@@H]1CN[C@H](c2cc3cccnc3[nH]2)CO1)C(c1ccccc1)c1ccccc1 [Example 62, Nα-(methoxycarbonyl)-β-phenyl-N-(2-{2-[(2R,5R)-5-(1H-pyrrolo[2,3-b]pyridin-2-yl)morpholin-2-yl]ethyl}phenyl)-L-phenylalaninamide]",156
10,"O=C(C[C@H](c1ccccc1)c1ccc(F)cc1)Nc1cncc(F)c1CC[C@@H]1CN[C@H](c2nc3cc(F)c(F)cc3[nH]2)CO1 [Example 70, (3R)—N-(4-{2-[(2R,5R)-5-(5,6-difluoro-1H-benzimidazol-2-yl)morpholin-2-yl]ethyl}-5-fluoropyridin-3-yl)-3-(4-fluorophenyl)-3-phenylpropanamide]",0.01
11,"O=C(C[C@H](c1ccccc1)c1ccc(F)cc1)Nc1cncc(F)c1CC[C@@H]1CN[C@H](c2nc3ccccc3[nH]2)CO1 [Example 71, (3R)—N-(4-{2-[(2R,5R)-5-(1H-benzimidazol-2-yl)morpholin-2-yl]ethyl}-5-fluoropyridin-3-yl)-3-(4-fluorophenyl)-3-phenylpropanamide]",0.01

# Reference: patent US9737545B2 (MERCK SHARP & DOHME CORP., priority 2013, dated 2017)
